The text below walks through data of patent publication US5773423A (priority 1994, dated 1998).

In general, Ki refers to the equilibrium dissociation constant of an inhibitor or competing ligand from its target. By ED50 is commonly meant the dose that gives a 50% effect, or the effect in half of the subjects.

Data set [1] has as its system locomotor activity in mice. Briefly: Locomotor activity in mice (open field, Digiscan activity monitor). It is filed as in vivo, mouse (NIH Swiss).
Data set [2] addresses T1, A2 receptors from rat striatal membranes (Rattus norvegicus, UniProt P30543).
T1 construct: Rat cerebral cortical and striatal membranes were prepared; from tissue; host or cells: rat striatal membranes
The data set is described as follows: Radioligand binding at A2 (A2a) receptors, displacement of [3H]CGS 21680 (or [3H]NECA with 50 nM CPA) from rat striatal membranes. A general note: Loss of bound radioactivity is the signal in a displacement assay; it reports binding, not function.

Data set [3] has as its target T2, A1 receptors from rat brain membranes (Rattus norvegicus, UniProt P25099).
T2 construct: Rat cerebral cortical and striatal membranes were prepared; from tissue; host or cells: rat brain (cerebral cortical) membranes
T2 sequence (P25099 1-326): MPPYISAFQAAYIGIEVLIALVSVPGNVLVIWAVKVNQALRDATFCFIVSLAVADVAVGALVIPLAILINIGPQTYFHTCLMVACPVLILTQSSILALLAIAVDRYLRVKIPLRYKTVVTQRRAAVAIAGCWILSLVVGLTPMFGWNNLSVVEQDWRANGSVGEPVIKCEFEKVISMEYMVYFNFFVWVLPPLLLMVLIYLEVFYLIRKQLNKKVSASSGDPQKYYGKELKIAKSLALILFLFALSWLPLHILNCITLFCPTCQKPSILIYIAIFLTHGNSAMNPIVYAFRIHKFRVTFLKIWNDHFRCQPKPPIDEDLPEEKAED
Briefly: biochemical. In kind it is binding. Particulars: for Ki: rat brain membranes.

Data set [4] concerns cardiovascular parameters in rats. It is filed as in vivo, rat.
Description: Rats (each weighing 300-340 g) were lightly anesthetized using 1.5-2% halothane. They were monitored for heart rate with a tail sensor and blood pressure using the tail cuff method. Peripheral blood flow (scalp) was monitored using a Perimed laser Doppler blood flow apparatus, with a narrow diameter probe placed in contact with the shaved skin above the center of the cranium. A small amount of clear gel was applied to maintain uniform transmission of light. Body temperature was measured using a rectal probe. Respiratory rate was also recorded. Measurements were made at regular intervals: every 2 min for the first ten min period, and every five min thereafter, until 30 min, at which time a 30 min interval was used, until 90 min. […] Drugs were dissolved in a vehicle consisting of an 80:20 mixture of Alkamuls EL-620 and saline, pH 7.4. […] When administered alone, the agonist was given at the beginning of the monitoring period. When coadministered with an antagonist, the antagonist was given at the beginning of the monitoring period, and the agonist was given after 10 min.
The target of data set [5] is T2, A1 receptors from rat brain membranes.
The target in data set [6] is T1, A2 receptors from rat striatal membranes.
Data set [7] deals with T3, A1 and A3 adenosine receptors in mouse brain membranes (Mus musculus, UniProt Q60612).
T3 sequence (Q60612 1-326): T2 sequence (P25099 1-326) with V151E, D155A, R157I, D316E, L319I, E325D

Data set [8] deals with NMDA-evoked seizures in mice. It is filed as in vivo.
Data set [9] has as its system pentamethylenetetrazole-induced convulsions in mice. It is filed as in vivo. The conditions noted are these: PMT 75 mg/kg alone.
The mark [10] stands for this setting: Table 2, [3H]CGS 21680, rat striatal membranes, read-out: Ki (A2).
Where [11] appears, read: Table 2, [3H]PIA, read-out: Ki (A1).
The mark [12] stands for this setting: 4 mg/kg alone, 10-30 min post-injection.
Setting [13] is: 0.1 mg/kg i.p., from initial value.
The mark [14] stands for this setting: rat striatal membranes, displacement of [3H]CGS 21680 (or [3H]NECA + 50 nM CPA), read-out: A2 affinity Ki.
The mark [15] stands for this setting: values without SEM, taken from the literature; read-out: A1 affinity Ki; cited from earlier work.
Where [16] appears, read: values without SEM, taken from the literature; read-out: A2 affinity Ki; cited from earlier work.
Setting [17] is: read-out: A1 affinity Ki; values without SEM, taken from the literature; cited from earlier work.

The structures appear in SMILES notation. Substitutions are numbered along the chain they refer to. Like-named read-outs stand apart in the source and are kept apart here. Where only a bound is given, the exact number is not on record here.

T1 sequence (P30543 whole entry): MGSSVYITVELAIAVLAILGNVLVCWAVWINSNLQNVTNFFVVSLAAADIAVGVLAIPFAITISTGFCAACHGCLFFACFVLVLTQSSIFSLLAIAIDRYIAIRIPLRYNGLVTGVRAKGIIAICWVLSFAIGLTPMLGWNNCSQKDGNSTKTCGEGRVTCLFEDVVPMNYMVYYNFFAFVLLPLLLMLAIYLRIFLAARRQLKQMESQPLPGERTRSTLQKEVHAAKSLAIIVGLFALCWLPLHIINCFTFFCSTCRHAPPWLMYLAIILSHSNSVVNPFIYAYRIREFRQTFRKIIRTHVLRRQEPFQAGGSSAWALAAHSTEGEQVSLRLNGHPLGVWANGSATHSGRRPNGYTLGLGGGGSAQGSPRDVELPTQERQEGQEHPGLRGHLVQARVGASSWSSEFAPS

In the case of `CCNC(=O)[C@H]1O[C@@H](n2cnc3c(N)nc(NCCc4ccc(CCC(=O)NCCN)cc4)nc32)[C@H](O)[C@@H]1O` [APEC, reference compound], the “reduction in locomotor activity at chosen dose” value in [1] (APEC 16 μg/kg, 3-IB-MECA 100 μg/kg i.p.) is recorded as “ca. 50%”. For the same compound, the Ki in data set [2] (setting [10]) was determined as 0.0057 µM; in data set [3] (setting [11]), 0.4 µM.

For the compound `CCCn1c(=O)c2[nH]c(-c3ccc(C=CC(=O)O)cc3)nc2n(CCC)c1=O` [BW1433, 1,3-dipropyl-8-(4-carboxyvinylphenyl)xanthine, reference compound], the “blood flow and respiratory rates (in words)” value in data set [4] (4 mg/kg alone) was “Blood flow and respiratory rates were increased”. Also, in data set [4] (setting [12]), the “rise in blood pressure” value is given as > 40 % of initial values and the “rise in heart rate” value is > 40 % of initial values. Further, the “body temperature (in words)” value in data set [4] (rat, in vivo, 4 mg/kg) was “no major changes”.

With `OC[C@H]1O[C@@H](n2cnc3c(NC4CCCC4)ncnc32)[C@H](O)[C@@H]1O` [Compound 4, N^6 -cyclopentyladenosine, reference compound], the ED50 in data set [1] (Mus musculus, ip, read-out: ED50 for locomotor depression) amounted to 0.1 mg/kg. Also, the “duration of bradycardiac effect” value in data set [4] (0.1 mg/kg i.p., entire monitoring period) came out at 90 min. In data set [4] (setting [13]), the “drop in blood pressure” value stood at 50% and the “drop in heart rate” value is reported as 20%. The “time at which hypotensive effect begins to wane” value in data set [4] (0.1 mg/kg i.p., post-injection) is given as “approximately 20 min”.

Turning to `CN(C)c1ncnc2c1ncn2[C@@H]1O[C@H](CO)[C@@H](O)[C@H]1O` [Compound 9, N^6 -dimethyladenosine, reference compound], the Ki in [2] (setting [14]) is 28.9 µM; in data set [5] (setting [15]), 10 µM.

With `COc1cc(OC)cc(C(CNc2ncnc3c2ncn3[C@@H]2O[C@H](CO)[C@@H](O)[C@H]2O)c2ccccc2C)c1` (some centres unmarked) [Compound 10, N^6-[2-(3,5-dimethoxyphenyl)-2-(2-methylphenyl)ethyl]adenosine], the Ki in [6] (read-out: A2 affinity Ki; cited from earlier work) is 0.0044 µM.

For the compound `O=S(=O)(O)CCNc1ncnc2c1ncn2[C@@H]1O[C@H](CO)[C@@H](O)[C@H]1O` [Compound 11, N^6-(2-sulfo)ethyladenosine], in [5] (at 100 μM, value without SEM, from the literature; cited from earlier work), the A1 percent displacement was 41%.

Take `OC[C@H]1O[C@@H](n2cnc3c(NC4CCCC4)cc(Cl)nc32)[C@H](O)[C@@H]1O` [Compound 15, 1-deaza-2-chloro-N^6-cyclopentyladenosine]: the Ki in data set [6] (setting [16]) was 13.2 µM.

Consider `NC(=O)[C@H]1O[C@@H](n2cnc3c(N)ncnc32)[C@H](O)[C@@H]1O` [Compound 20, 5'-carboxamidoadenosine], for which the inhibition constant (Ki) is 0.0726 µM in data set [5] (setting [15]) and 0.12 µM in data set [6] (setting [16]).

With `CCNC(=O)[C@H]1O[C@@H](n2cnc3c(NC4CCCCC4)ncnc32)[C@H](O)[C@@H]1O` [Compound 27, N^6 -cyclohexylNECA], the Ki was 0.00043 µM in data set [5] (read-out: A1 affinity Ki; cited from earlier work) and 0.17 µM in [6] (setting [16]).

`CCNC(=O)[C@H]1O[C@@H](n2cnc3c(NCc4ccccc4)ncnc32)[C@H](O)[C@@H]1O` [Compound 28, N^6-benzyladenosine-5'-N-ethyluronamide]: the Ki in [2] (setting [14]) is 0.0953 ± 0.0246 µM; in data set [6] (setting [16]), 0.095 µM; in [3] (displacement of [3H]PIA (or [3H]CHA), read-out: A1 affinity Ki), 0.0873 ± 0.0139 µM.

As to `CCNC(=O)[C@H]1O[C@@H](n2cnc3c(N(C)C)ncnc32)[C@H](O)[C@@H]1O` [Compound 29, N^6 -dimethylNECA, reference compound], the Ki was 13.5 µM in [2] (setting [14]) and 9.6 µM in [5] (setting [15]).

In the case of `Nc1ncnc2c1ccn2[C@@H]1O[C@H](CO)[C@@H](O)[C@H]1O` [Compound 33, 7-deazaadenosine, reference compound], the A2 percent displacement in data set [2] (striatal membranes, 100 µM) was determined as 48.3 ± 0.4%. Besides, the Ki in [5] (setting [17]) is above 0.1 µM.

For `Nc1[nH]c2ccccc2c2ncnc1-2` [Compound 94, imidazo[4,5-c]quinolin-4-amine], in data set [6] (setting [16]), the Ki is 1.4 µM.

Consider `N=C(N)NC(=O)c1nc(Cl)c(N)nc1N` [Compound 97, amiloride], for which the Ki in data set [5] (setting [17]) is 11 µM; in data set [6] (read-out: A2 affinity Ki; values without SEM, taken from the literature; cited from earlier work), 17 µM.

With `O=c1[nH]c(=O)c2[nH]cnc2[nH]1` [Compound 98, xanthine, reference compound], in data set [2] (read-out: A2 percent displacement), the inhibition at 100 µM is 16.2 ± 2.6%. Moreover, the Ki in [5] (setting [15]) was 298 µM.

Turning to `Cn1c(=O)[nH]c2nc[nH]c2c1=O` [Compound 99, 1-methylX], the inhibition constant Ki in data set [5] (setting [15]) is 11.4 µM; in [6] (setting [16]) it was 36.2 µM.

`Cn1c(=O)[nH]c2ncn(C)c2c1=O` [Compound 104, 1,7-dimethylX, reference compound]: the results for the Ki in [2] (setting [14]) and in [5] (setting [15]) were 19.4 µM and 30 µM, respectively.

In the case of `Cn1cnc2c1c(=O)[nH]c(=O)n2C` [Compound 106, 3,7-dimethylX], the Ki in data set [5] (setting [15]) is 83.4 µM; in data set [6] (setting [16]), 187 µM.

Regarding `CC(C)Cn1c(=O)n(C)c(=O)c2[nH]cnc21` [Compound 108, 3-isobutyl-1-methylxanthine], the Ki in [6] (setting [16]) is 16 µM.

As for `CCCn1c(=O)c2[nH]c(C3CCCC3)nc2n(CCC)c1=O` [Compound 130, 8-cyclopentyl-1,3-dipropylxanthine], the “displacement of specific [125I]AB-MECA binding (in words)” value in [7] was “completely displaced most but not all of the high affinity [^125 I]AB-MECA binding”. The “Ki for displacement of [125I]AB-MECA binding” value in data set [7] (sigmoidal competition curves) lay in the range of 0.002 to 0.008 µM.

Regarding `CCCn1c(=O)c2[nH]c(-c3ccc(S(=O)(=O)O)cc3)nc2n(CCC)c1=O` [Compound 135, 8-sulfophenyl-1,3-dipropylX], the values for the Ki in data set [5] (setting [15]) and in data set [6] (setting [16]) were 0.14 µM and 0.79 µM, respectively.

Turning to `CNC(=O)[C@H]1O[C@@H](n2cnc3c(NCc4cccc(I)c4)nc(NC)nc32)[C@H](O)[C@@H]1O` [Example 45, N^6-(3-iodobenzyl)-2-methylamino-9-[5-(methylamido)-β-D-ribofuranosyl]-adenine], the Ki in data set [2] (setting [10]) amounted to 4.12 ± 0.21 µM; in data set [3] (setting [11]), 4.89 ± 2.58 µM.

As for `COc1nc2c(c(=O)n(C)c(=O)n2C)n1[C@@H]1O[C@H](CO)[C@@H](O)[C@H]1O` [Example 59, 8-methoxytheophylline-7-β-D-ribofuranoside], the inhibition at 100 µM stood at 4% in data set [2] (Table 4, at 10^-4 M, read-out: percent displacement of radioligand at A2) and 21 ± 3% in [3] (Table 4, at 10^-4 M, read-out: percent displacement of radioligand at A1).

`CN[C@H](CC(=O)O)C(=O)O` [NMDA, N-methyl-D-aspartate, reference compound]: in data set [8] (NMDA 60 mg/kg alone), the “% Mortality at 24 h” value stood at 60% and the “Ave. Latency to Seizures” value was 244 + 90 sec. The “% Convulsing” value in [8] (NMDA 60 mg/kg alone (control), within 15 min) amounted to 80%. Further, the “Impairment (neurological impairment scale 1-6)” value in data set [8] (NMDA 60 mg/kg alone, 1 no change ... 6 clonic/tonic complexes) stood at 3.5 ± 0.5.

As to `C1CCc2nnnn2CC1` [PMT, pentamethylenetetrazole, reference compound], in [9], the “Mortality 0.4-5 h” value is reported as 0%, the “Mortality <15 min” value came out at 100%, the “Mortality >5 h” value worked out at 0% and the “Mortality Overall” value turned out to be 100%. For the same compound, the “Onset of convulsive behavior” value in data set [9] amounted to 74 s.

On to `CN1CCC(=C2c3ccccc3C=Cc3ccccc32)CC1` [cyproheptadine, reference compound], for which the results for the “effect on 3-IB-MECA-induced scratching (in words)” value in data set [1] (1 mg/kg) and in [1] (10 mg/kg i.p.) were “only partial” and “eliminated this behavior”, respectively.
